Data from patent US20230406885A1, “CYCLIC PEPTIDES FOR TRAPPING INTERLEUKIN-1 BETA” (MERCK SHARP & DOHME LLC, priority 2022, published 2023).
pIC50: −log10 of the molar value. *1 amine or outer side, *2 acyl side, *3 side chain or, on linkers, in order; H or OH if unused. Where a SMILES comes first, the peptide text is derived from it. [ ]: non-standard residue; d: D form. Phe(4-(4-Ac-piperazinyl)) = CC(=O)N1CCN(c2ccc(C[C@H](N)C(=O)O)cc2)CC1; Trp(4-Cl)(βS-Me) = C[C@@H](c1c[nH]c2cccc(Cl)c12)[C@H](N)C(=O)O; Trp(βS-Me,4-F) = C[C@@H](c1c[nH]c2cccc(F)c12)[C@H](N)C(=O)O; Bip(4'-COOH) = N[C@@H](Cc1ccc(-c2ccc(C(=O)O)cc2)cc1)C(=O)O; X3 = CC(=O)N1CCN(c2ncc(C[C@H](N[*:1])C(=O)[*:2])cn2)CC1; 1Nal(3S-Me) = C[C@@H](c1cccc2ccccc12)[C@H](N)C(=O)O; Ala(indazol-1-yl) = N[C@@H](Cn1ncc2ccccc21)C(=O)O; Phe(4-COOH) = N[C@@H](Cc1ccc(C(=O)O)cc1)C(=O)O; Trp(7-Me) = Cc1cccc2c(C[C@H](N)C(=O)O)c[nH]c12; X10 = O=C([C@H](CC1CCC(F)(F)CC1)N[*:1])[*:2]; h3Pal(5-CN) = N#Cc1cncc(CC[C@H](N)C(=O)O)c1; Pro(4R-NH2) = N[C@H]1CN[C@H](C(=O)O)C1; X7 = O=C([C@H](CCN1CCOCC1)N[*:1])[*:2]; 1Nal = N[C@@H](Cc1cccc2ccccc12)C(=O)O; Ala(4-THP) = N[C@@H](CC1CCOCC1)C(=O)O; AEF = NCCOc1ccc(C[C@H](N)C(=O)O)cc1; hTyr = N[C@@H](CCc1ccc(O)cc1)C(=O)O; 4Pal = N[C@@H](Cc1ccncc1)C(=O)O; dDap = NC[C@@H](N)C(=O)O; dNMeA = CN[C@H](C)C(=O)O; Nva = CCC[C@H](N)C(=O)O; Dap = NC[C@H](N)C(=O)O; Aib = CC(C)(N)C(=O)O

Molecular target: T1, Recombinant human IL-1β (Homo sapiens, UniProt P01584)
T1 construct: purchased BioLegend 579404
T1 sequence (P01584 117-269): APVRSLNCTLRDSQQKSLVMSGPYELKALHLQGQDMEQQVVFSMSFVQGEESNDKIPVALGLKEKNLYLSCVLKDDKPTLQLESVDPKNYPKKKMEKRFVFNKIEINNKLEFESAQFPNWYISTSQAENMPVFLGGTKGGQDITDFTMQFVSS
Experiment: IL-6 assay in MRC5 cells: inhibition of IL-1β induced IL-6 secretion (AlphaLISA)
Type: cell-based
Details: inhibition of IL-1β induced IL-6 secretion in MRC5 cells; IL-1β pre-incubated 1 hour with compound; read-out: MRC5 IC50
Description: Procedure for IL-6 Assay in MRC5 Cells
The inhibition of IL-1β induced IL-6 secretion was evaluated in MRC5 cells. Recombinant human IL-1β (BioLegend 579404) at 2×EC80 concentration was prepared in seeding medium, EMEM (ATCC 30-2003) with 0.025% BSA (Sigma A9576), 1× penicillin/streptomycin (Gibco 15070-063), 1×NEAA (Gibco 11140-050), 1× GlutaMax (Gibco 35050-061), and 1× sodium pyruvate (Gibco 11360-070). 20 μL of IL-1β was added to a 384-well collagen-coated plate (Corning 354664) and pre-incubated at ambient temperature for 1 hour with 200 nL of compound dispensed using an ECHO 555 liquid handler. Human lung fibroblast MRC5 cells (ATCC CCL-171) were added at a density of 3000 cells/20 μL per well. The cells were prepared by passaging three times in growth medium, EMEM (ATCC 30-2003) with 10% fetal bovine serum (Gibco 16140-071), 1× penicillin/streptomycin (Gibco 15070-063), 1×NEAA (Gibco 11140-050), 1× GlutaMax (Gibco 35050-061), and 1× sodium pyruvate (Gibco 11360-070) in collagen-coated T175 flasks (Greiner 661950) and harvested in seeding medium after 5 minutes of 0.25% trypsin-EDTA (Gibco 25200-056) digestion. The 384-well collagen-coated plate, containing a final volume of 40 μL, was incubated at 37° C., 5% CO2 overnight. 5 μL of the conditioned medium was transferred to a 384-well AlphaLISA plate (PerkinElmer 6005350) for detection of IL-6 using the human AlphaLISA IL-6 kit (PerkinElmer AL223F) as per the manufacturer's protocol. 20 μL of the acceptor bead/biotinylated antibody mix was added to the 384-well AlphaLISA plate and incubated for 1 hour at ambient temperature. The donor bead mix was protected from light and 25 μL was added to the plate and incubated for 30 minutes at ambient temperature. The AlphaLISA plate was read on an EnVision multimode plate reader (Perkin Elmer model 2104) using the AlphaScreen setting (laser exc at 680 nm and emis at 570 nm). Dose response curves and IC50 values were analyzed using a 4-parameter logistic equation in Spotfire software (Tibco, Palo Alto, CA).

Row | Structure (SMILES) | pIC50
1 | C[C@@H]1C(=O)NCC(=O)N[C@@H](Cc2ccc(-c3ccc(C(=O)O)cc3)cc2)C(=O)N[C@@H](CC2CCOCC2)C(=O)N[C@@H](CN)C(=O)N[C@H](C)C(=O)N[C@@H](CCc2ccc(O)cc2)C(=O)N[C@@H](Cc2ccc(-c3ccc(C(=O)O)cc3)cc2)C(=O)N[C@@H](Cc2c[nH]c3ccccc23)C(=O)N[C@@H](Cc2ccc(C(=O)O)cc2)C(=O)NCC(=O)N2C[C@H](N)C[C@H]2C(=O)N[C@@H]([C@@H](C)c2cccc3ccccc23)C(=O)N[C@@H](CC(=O)O)C(=O)N1C [Example 24] (cyclo([Bip(4'-COOH)]W[Phe(4-COOH)]G[Pro(4R-NH2)][1Nal(3S-Me)]D[dNMeA]G[Bip(4'-COOH)][Ala(4-THP)][Dap][dA][hTyr])) | 10.54
2 | C[C@@H]1C(=O)NCC(=O)N[C@@H](Cc2ccc(-c3ccc(C(=O)O)cc3)cc2)C(=O)N[C@@H](Cn2ncc3ccccc32)C(=O)N[C@@H](CN)C(=O)N[C@H](C)C(=O)N[C@@H](CCc2ccc(O)cc2)C(=O)N[C@@H](Cc2ccc(-c3ccc(C(=O)O)cc3)cc2)C(=O)N[C@@H](Cc2c[nH]c3ccccc23)C(=O)N[C@@H](Cc2ccc(C(=O)O)cc2)C(=O)NCC(=O)N2C[C@H](N)C[C@H]2C(=O)N[C@@H]([C@@H](C)c2cccc3ccccc23)C(=O)N[C@@H](CC(=O)O)C(=O)N1C [Example 13] (cyclo([Bip(4'-COOH)]W[Phe(4-COOH)]G[Pro(4R-NH2)][1Nal(3S-Me)]D[dNMeA]G[Bip(4'-COOH)][Ala(indazol-1-yl)][Dap][dA][hTyr])) | 10.51
3 | CC(=O)NCCOc1ccc(C[C@@H]2NC(=O)[C@H](C)NC(=O)[C@@H](C)NC(=O)[C@H](CC(C)C)NC(=O)[C@H](Cc3cccc4ccccc34)NC(=O)[C@H](Cc3ccc(-c4ccc(C(=O)O)cc4)cc3)NC(=O)CNC(=O)[C@@H](C)N(C)C(=O)[C@H](CC(=O)O)NC(=O)[C@H]([C@@H](C)c3cccc4ccccc34)NC(=O)[C@@H]3C[C@@H](N)CN3C(=O)CNC(=O)[C@H](Cc3ccc(C(=O)O)cc3)NC(=O)[C@H](Cc3c[nH]c4ccccc34)NC2=O)cc1 [Example 97] (cyclo([AEF](Ac)W[Phe(4-COOH)]G[Pro(4R-NH2)][1Nal(3S-Me)]D[dNMeA]G[Bip(4'-COOH)][1Nal]L[dA]A)) | 9.53
4 | CC(=O)N1CCN(c2ncc(C[C@@H]3NC(=O)[C@H](CCc4ccc(O)cc4)NC(=O)[C@@H](C)NC(=O)[C@H](CN)NC(=O)[C@H](Cc4c[nH]c5ccccc45)NC(=O)[C@H](Cc4ccc(-c5ccc(C(=O)O)cc5)cc4)NC(=O)CNC(=O)[C@@H](C)N(C)C(=O)[C@H](CC(=O)O)NC(=O)[C@H]([C@@H](C)c4cccc5ccccc45)NC(=O)[C@@H]4C[C@@H](N)CN4C(=O)CNC(=O)[C@H](Cc4ccc(C(=O)O)cc4)NC(=O)[C@H](Cc4c[nH]c5ccccc45)NC3=O)cn2)CC1 [Example 88] (cyclo([X3]W[Phe(4-COOH)]G[Pro(4R-NH2)][1Nal(3S-Me)]D[dNMeA]G[Bip(4'-COOH)]W[Dap][dA][hTyr])) | 10.02
5 | CC(C)C[C@@H]1NC(=O)[C@H](CCCCN)NC(=O)[C@H](Cc2ccc(-c3ccc(C(=O)O)cc3)cc2)NC(=O)CNC(=O)[C@@H](C)N(C)C(=O)[C@H](CC(N)=O)NC(=O)[C@H]([C@@H](C)c2c[nH]c3cccc(F)c23)NC(=O)[C@@H]2C[C@@H](N)CN2C(=O)CNC(=O)[C@H](Cc2ccc(C(=O)O)cc2)NC(=O)[C@H](Cc2c[nH]c3ccccc23)NC(=O)[C@H](Cc2ccc(-c3ccc(C(=O)O)cc3)cc2)NC(=O)[C@H](CCc2ccc(O)cc2)NC(=O)[C@@H](C)NC1=O [Example 80] (cyclo([Bip(4'-COOH)]W[Phe(4-COOH)]G[Pro(4R-NH2)][Trp(βS-Me,4-F)]N[dNMeA]G[Bip(4'-COOH)]KL[dA][hTyr])) | 9.54
6 | CC(C)C[C@@H]1NC(=O)[C@H](Cc2cccc3ccccc23)NC(=O)[C@H](Cc2ccc(-c3ccc(C(=O)O)cc3)cc2)NC(=O)CNC(=O)[C@@H](C)N(C)C(=O)[C@H](CC(=O)O)NC(=O)[C@H]([C@@H](C)c2c[nH]c3cccc(Cl)c23)NC(=O)[C@@H]2C[C@@H](N)CN2C(=O)CNC(=O)[C@H](Cc2ccc(C(=O)O)cc2)NC(=O)[C@H](Cc2c[nH]c3ccccc23)NC(=O)[C@H](Cc2ccc(-c3ccc(C(=O)O)cc3)cc2)NC(=O)CNC(=O)C(C)(C)NC1=O [Example 35] (cyclo([Bip(4'-COOH)]W[Phe(4-COOH)]G[Pro(4R-NH2)][Trp(4-Cl)(βS-Me)]D[dNMeA]G[Bip(4'-COOH)][1Nal]L[Aib]G)) | 9.80

Same assay, conditions: inhibition of IL-1β induced IL-6 secretion in MRC5 cells; read-out: MRC5 IC50

Row | Structure (SMILES) | pIC50
7 | Cc1cccc2c(C[C@@H]3NC(=O)[C@H](Cc4ccc(-c5ccc(C(=O)O)cc5)cc4)NC(=O)[C@H](CCc4ccc(O)cc4)NC(=O)[C@@H](C)NC(=O)[C@H](CC(C)C)NC(=O)[C@H](CCCCN)NC(=O)[C@H](Cc4ccc(-c5ccc(C(=O)O)cc5)cc4)NC(=O)CNC(=O)[C@@H](C)N(C)C(=O)[C@H](CC(=O)O)NC(=O)[C@H]([C@@H](C)c4c[nH]c5cccc(F)c45)NC(=O)[C@@H]4C[C@@H](N)CN4C(=O)CNC(=O)[C@H](Cc4ccc(C(=O)O)cc4)NC3=O)c[nH]c12 [Example 186] (cyclo([Bip(4'-COOH)][Trp(7-Me)][Phe(4-COOH)]G[Pro(4R-NH2)][Trp(βS-Me,4-F)]D[dNMeA]G[Bip(4'-COOH)]KL[dA][hTyr])) | 10.42
8 | CC(=O)NCCOc1ccc(C[C@@H]2NC(=O)CNC(=O)[C@@H](C)NC(=O)[C@H](CCN3CCOCC3)NC(=O)[C@H](Cc3c[nH]c4ccccc34)NC(=O)[C@H](Cc3ccc(-c4ccc(C(=O)O)cc4)cc3)NC(=O)CNC(=O)[C@@H](C)N(C)C(=O)[C@H](CC(=O)O)NC(=O)[C@H]([C@@H](C)c3c[nH]c4cccc(Cl)c34)NC(=O)[C@@H]3C[C@@H](N)CN3C(=O)CNC(=O)[C@H](Cc3ccc(C(=O)O)cc3)NC(=O)[C@H](Cc3c[nH]c4ccccc34)NC2=O)cc1 [Example 140] (cyclo([AEF](Ac)W[Phe(4-COOH)]G[Pro(4R-NH2)][Trp(4-Cl)(βS-Me)]D[dNMeA]G[Bip(4'-COOH)]W[X7][dA]G)) | 9.29
9 | CC(=O)NC[C@@H]1NC(=O)[C@H](Cc2ccc(-c3ccc(C(=O)O)cc3)cc2)NC(=O)CNC(=O)[C@@H](C)N(C)C(=O)[C@H](CC(=O)O)NC(=O)[C@H]([C@@H](C)c2cccc3ccccc23)NC(=O)[C@@H]2C[C@@H](N)CN2C(=O)CNC(=O)[C@H](Cc2ccc(C(=O)O)cc2)NC(=O)[C@H](Cc2c[nH]c3ccccc23)NC(=O)[C@H](Cc2ccc(N3CCN(C(C)=O)CC3)cc2)NC(=O)[C@H](CCc2cncc(C#N)c2)NC(=O)[C@@H](CN)NC(=O)[C@H](CC(C)C)NC1=O [Example 205] (cyclo([Phe(4-(4-Ac-piperazinyl))]W[Phe(4-COOH)]G[Pro(4R-NH2)][1Nal(3S-Me)]D[dNMeA]G[Bip(4'-COOH)][Dap](Ac)L[dDap][h3Pal(5-CN)])) | 11.00
10 | CCC[C@@H]1NC(=O)[C@H](Cc2ccncc2)NC(=O)[C@H](Cc2ccc(-c3ccc(C(=O)O)cc3)cc2)NC(=O)CNC(=O)[C@@H](C)N(C)C(=O)[C@H](CC(=O)O)NC(=O)[C@H]([C@@H](C)c2c[nH]c3cccc(Cl)c23)NC(=O)[C@@H]2C[C@@H](N)CN2C(=O)CNC(=O)[C@H](Cc2ccc(C(=O)O)cc2)NC(=O)[C@H](Cc2c[nH]c3ccccc23)NC(=O)[C@H](Cc2ccc(OCCNC(C)=O)cc2)NC(=O)[C@H](CC2CCC(F)(F)CC2)NC(=O)[C@@H](C)NC1=O [Example 136] (cyclo([AEF](Ac)W[Phe(4-COOH)]G[Pro(4R-NH2)][Trp(4-Cl)(βS-Me)]D[dNMeA]G[Bip(4'-COOH)][4Pal][Nva][dA][X10])) | 9.40
